{"source": "patent US20210147811A1", "about": "“METHODS FOR IN VITRO EXPANSION OF ADULT TISSUE STEM CELLS” (CEDARS-SINAI MEDICAL CENTER, priority 2018, published 2021)", "format_in_all_cases": "cell-based", "key": {"[1]": {"test_system": "freshly isolated murine distal total epithelial cells", "assay": "3D organoid culture of freshly isolated murine distal total epithelial cells", "description": "FIG. 1. Experimental design. Preconditioning of donor cells, including addition of small molecules such as ROCK inhibitor, pifithrin α, or combined together, and generation of organoids.\nFIG. 3. […] Addition of the TGF-β inhibitor, SB 431542 to the culture medium increases the % colony forming efficiency of freshly isolated murine lung epithelial cells. Addition of Pifithrin α causes an increase in organoids size, while addition of ROCKi causes an increase in the colony forming efficiency.\nFIG. 13. Effect of p53 and ROCKi inhibition on murine freshly isolated distal total epithelial cells in (+SB431542). Addition of both ROCKi and Pifithrin alpha (in presence of SB431542) increases the colony forming efficiency of freshly isolated murine distal total epithelial cells (isolated from the lung without trachea). […] Pifithrin alpha also causes an increase in the size of the organoids (C). […] The drop in mean diameter of the Pifithrin alpha+ROCKi group is likely due to space constraints because of the large number of organoids per well.\nFurther described herein is a cell culture including a quantity of human stem cells, or stem cell derived cells in a cell culture media including at least one molecule including: a RHO-kinase (ROCK) inhibitor, SMAD inhibitor, and p53 inhibitor. In other embodiments, the RHO-kinase inhibitor is Y27632 and the p53 inhibitor is Pifithrin α. In other embodiments, the stem cells are adult stem cells. In other embodiments, the stem cell derived cells are lung epithelial cells. In various embodiments, the aforementioned inhibitors are at a concentration of 0.1-1 uM, 1-5 uM, 5-10 uM, 10-25 uM, 25-50 uM, or 50 uM or more. In various embodiments, the p53 inhibitor is Pifithrin-alpha. For example, this includes a media formulated as follows: 5 mL FBS, 500 uL ITS (100×), 50 uL Fungizone, 500 uL Pen/Strep (100×), DMEM/F12 up to 50 mL, 5 uL SB431542, Pifithrin-alpha 10 uM, ROCKi (Y-27632 dihydrochloride)—10 uM. Also described herein is a quantity of organoids including cells made by the aforementioned methods. In various embodiments, the organoids include proximal and/or distal cells. In various embodiments, the distal cells are alveolar type II progenitors and/or Scgb1a1 positive club progenitor cells."}, "[2]": {"test_system": "murine pre-cultured distal total epithelial cells", "assay": "3D organoid culture of murine distal total epithelial cells pre-cultured 24 hrs on collagen coated plates", "conditions": "pre-cultured on collagen coated plates for 24 hrs after isolation, +SB431542", "description": "FIG. 4. Effect of pre-culturing—Day 3. Pre-culturing cells on collagen coated plates for 24 hrs after initial isolation increases the rate of organoid formation, with organoids being visible as early as day 3 in culture.\nFIG. 5. Effect of pre-culturing—Day 8. Addition of Pifithrin α causes an increase in organoids size, while addition of ROCKi causes an increase in the colony forming efficiency. This effect is more pronounced when cells are pre-cultured for 24 hrs on collagen coated plates after initial isolation.\nFIG. 14. Effect of inhibitors on murine pre-cultured distal total epithelial cells in (+SB431542). Addition Pifithrin alpha increases organoid size while addition of ROCKi increases the colony forming efficiency when murine distal total epithelial cells (isolated from the lung without trachea) are pre-cultured on collagen coated plates for 24 hrs prior after initial isolation. The effect on size is more pronounced when cells are precultured for 24 hrs on collagen coated plates after initial isolation. The drop in CFE in the Pifithrin alpha+ROCKi group is likely due space and nutrient availability constraints due to the large number of organoids per well.\nROCKi increases the colony forming efficiency when murine distal total epithelial cells (isolated from the lung without trachea) are pre-cultured on collagen coated plates for 24 hrs prior after initial isolation. The effect on size is more pronounced when cells are precultured for 24 hrs on collagen coated plates after initial isolation. The drop in CFE in the Pifithrin alpha+ROCKi group is likely due space and nutrient availability constraints due to the large number of organoids per well. Addition of both ROCKi and Pifithrin alpha (in presence of SB431542) increases the colony forming efficiency of freshly isolated alveolar type II cells (regional stem cells which maintain the epithelium of the air sacs in the lung). The effect is synergistic for their combined use, similar to that seen for total distal epithelial cells in the previous figures."}, "lung stem cells": {"test_system": "lung stem cells", "assay": "In vitro organoid assays of clonal expansion of lung stem cells", "conditions": "combination of p53 inhibitor with ROCK inhibitor (and TGFb inhibitors)", "description": "Methods have been developed for expansion of stem cells using a combination of irradiated NIH-3T3 fibroblasts and a ROCK inhibitor (Y27632). […] Preliminary studies by the Inventors have shown that pharmacologic inhibition of p53 results in greater clonal expansion of lung stem cells compared to use of ROCK inhibitor Y27632 alone. Effects of combined treatment with Pifithrin-α and Y27632 are additive. Future studies will determine reversibility of Pifirthrin-α effects on stem cell expansion and differentiation. This includes: 1) validating that the observed increase in clonogenic potential of lung stem cells is the result of stem cell expansion, 2) application of the aforementioned pharmacologic intervention during in vitro stem cell expansion enhances their viability following cryopreservation, 3) that application of the aforementioned pharmacologic intervention during in vitro stem cell expansion enhances to functionally engraft into lung tissue following orthotopic lung transplantation, 4) that stem cells expanded under these conditions retain full capacity for differentiation into specialized lung epithelial cell types and 5) that established culture conditions can be used to expand human lung stem cells. […]"}, "[3]": {"conditions": "freshly isolated cells, in presence of SB431542 (FIG. 13)"}}}
{"smiles": "Cc1ccc(C(=O)Cn2c3c(sc2=N)CCCC3)cc1", "note": "[Pifithrin α]", "values": [{"measurement": "colony forming efficiency", "setting": "[1]; [3]", "value": "increases"}, {"measurement": "size of the organoids (mean diameter)", "setting": "[1]; [3]", "value": "increase"}, {"measurement": "survival and proliferation of the stem cells (inferred from CFE and organoid size)", "setting": "[1]; freshly isolated distal cells, FIG. 13", "value": "increase survival and proliferation"}, {"measurement": "organoids size", "setting": "[1]; freshly isolated murine lung epithelial cells (FIG. 3)", "value": "increase"}, {"measurement": "organoid size", "setting": "[2]", "value": "increase"}, {"measurement": "organoid size", "setting": "[2]; listed as Pifithrin alpha", "value": "increases"}, {"measurement": "effect of combined use on clonal expansion / clonogenic potential of lung stem cells", "setting": "lung stem cells", "value": "additive"}]}
